Test results reported in the NIST ThermoML archive (doi:10.1016/j.jct.2006.06.005).
± gives the expanded uncertainty stated by the source.

Experiment: xn = mol fraction of the nth substance listed
Details: 101 kPa, Liquid

CN1CCCC1=O [N-methylpyrrolidone] + Cc1ccccc1
Details	mass density [kg/m3]	viscosity [mPa·s]
303.15 K, x2 = 0	1023.47 ± 0.53	1.554 ± 0.037
303.15 K, x2 = 0.1071	1006.98 ± 0.46	1.399 ± 0.034
303.15 K, x2 = 0.2121	990.67 ± 0.45	1.258 ± 0.031
303.15 K, x2 = 0.3156	974.42 ± 0.48	1.138 ± 0.028
303.15 K, x2 = 0.4177	958.02 ± 0.52	1.021 ± 0.026
303.15 K, x2 = 0.5185	941.54 ± 0.56	0.923 ± 0.023
303.15 K, x2 = 0.6174	925 ± 0.6	0.822 ± 0.021
303.15 K, x2 = 0.7151	907.95 ± 0.64	0.727 ± 0.019
303.15 K, x2 = 0.8114	890.99 ± 0.68	0.65 ± 0.017
303.15 K, x2 = 0.9064	874.21 ± 0.72	0.566 ± 0.015
313.15 K, x2 = 0	1014.55 ± 0.5	1.332 ± 0.032
313.15 K, x2 = 0.1071	998.03 ± 0.44	1.21 ± 0.03
313.15 K, x2 = 0.2121	981.67 ± 0.47	1.088 ± 0.027
313.15 K, x2 = 0.3156	965.37 ± 0.51	0.991 ± 0.025
313.15 K, x2 = 0.4177	948.91 ± 0.54	0.89 ± 0.023
313.15 K, x2 = 0.5185	932.4 ± 0.58	0.803 ± 0.021
313.15 K, x2 = 0.6174	915.81 ± 0.62	0.719 ± 0.019
313.15 K, x2 = 0.7151	898.7 ± 0.66	0.642 ± 0.017
313.15 K, x2 = 0.8114	881.69 ± 0.71	0.575 ± 0.016
313.15 K, x2 = 0.9064	864.87 ± 0.75	0.516 ± 0.014
323.15 K, x2 = 0	1005.66 ± 0.47	1.16 ± 0.029
323.15 K, x2 = 0.1071	989.08 ± 0.46	1.061 ± 0.026
323.15 K, x2 = 0.2121	972.67 ± 0.5	0.956 ± 0.024
323.15 K, x2 = 0.3156	956.3 ± 0.53	0.87 ± 0.022
323.15 K, x2 = 0.4177	939.78 ± 0.57	0.783 ± 0.02
323.15 K, x2 = 0.5185	923.24 ± 0.61	0.71 ± 0.019
323.15 K, x2 = 0.6174	906.6 ± 0.65	0.639 ± 0.017
323.15 K, x2 = 0.7151	889.42 ± 0.69	0.572 ± 0.016
323.15 K, x2 = 0.8114	872.36 ± 0.73	0.514 ± 0.014
323.15 K, x2 = 0.9064	855.48 ± 0.78	0.463 ± 0.014
333.15 K, x2 = 0	996.71 ± 0.46	1.022 ± 0.026
333.15 K, x2 = 0.1071	980.08 ± 0.49	0.932 ± 0.024
333.15 K, x2 = 0.2121	963.63 ± 0.52	0.844 ± 0.022
333.15 K, x2 = 0.3156	947.17 ± 0.56	0.766 ± 0.02
333.15 K, x2 = 0.4177	930.61 ± 0.6	0.695 ± 0.018
333.15 K, x2 = 0.5185	914.01 ± 0.64	0.632 ± 0.017
333.15 K, x2 = 0.6174	897.3 ± 0.68	0.57 ± 0.016
333.15 K, x2 = 0.7151	880.06 ± 0.72	0.514 ± 0.014
333.15 K, x2 = 0.8114	862.94 ± 0.76	0.463 ± 0.014
333.15 K, x2 = 0.9064	845.99 ± 0.81	0.418 ± 0.013
343.15 K, x2 = 0	987.75 ± 0.48	0.908 ± 0.023
343.15 K, x2 = 0.1071	971.08 ± 0.51	0.844 ± 0.022
343.15 K, x2 = 0.2121	954.56 ± 0.55	0.751 ± 0.02
343.15 K, x2 = 0.3156	938.03 ± 0.59	0.683 ± 0.018
343.15 K, x2 = 0.4177	921.4 ± 0.62	0.622 ± 0.017
343.15 K, x2 = 0.5185	904.74 ± 0.66	0.566 ± 0.016
343.15 K, x2 = 0.6174	887.95 ± 0.7	0.518 ± 0.015
343.15 K, x2 = 0.7151	870.65 ± 0.75	0.464 ± 0.014
343.15 K, x2 = 0.8114	853.44 ± 0.79	0.418 ± 0.013
343.15 K, x2 = 0.9064	836.42 ± 0.83	0.379 ± 0.012
353.15 K, x2 = 0	978.76 ± 0.51	0.8127 ± 0.021
353.15 K, x2 = 0.1071	962 ± 0.54	0.7651 ± 0.02
353.15 K, x2 = 0.2121	945.42 ± 0.58	0.6769 ± 0.018
353.15 K, x2 = 0.3156	928.81 ± 0.61	0.617 ± 0.017
353.15 K, x2 = 0.4177	912.13 ± 0.65	0.5616 ± 0.015
353.15 K, x2 = 0.5185	895.4 ± 0.69	0.513 ± 0.014
353.15 K, x2 = 0.6174	878.51 ± 0.73	0.464 ± 0.014
353.15 K, x2 = 0.7151	861.11 ± 0.78	0.422 ± 0.013
353.15 K, x2 = 0.8114	843.83 ± 0.82	0.381 ± 0.012
353.15 K, x2 = 0.9064	826.71 ± 0.86	0.347 ± 0.011

CN1CCCC1=O [N-methylpyrrolidone] + c1ccccc1
Details	mass density, 303.15 K [kg/m3]	mass density, 313.15 K [kg/m3]	mass density, 323.15 K [kg/m3]	mass density, 333.15 K [kg/m3]	mass density, 343.15 K [kg/m3]	viscosity, 303.15 K [mPa·s]	viscosity, 313.15 K [mPa·s]	viscosity, 323.15 K [mPa·s]	viscosity, 333.15 K [mPa·s]	viscosity, 343.15 K [mPa·s]
x2 = 0	1023.47 ± 0.53	1014.55 ± 0.5	1005.66 ± 0.47	996.71 ± 0.46	987.75 ± 0.48	1.554 ± 0.037	1.332 ± 0.032	1.16 ± 0.029	1.022 ± 0.026	0.908 ± 0.023
x2 = 0.1239	1008.67 ± 0.45	999.64 ± 0.42	990.6 ± 0.45	981.51 ± 0.47	972.41 ± 0.5	1.357 ± 0.033	1.163 ± 0.029	1.015 ± 0.025	0.895 ± 0.023	0.797 ± 0.021
x2 = 0.2409	993.24 ± 0.42	984.1 ± 0.45	974.95 ± 0.47	965.76 ± 0.5	956.53 ± 0.53	1.222 ± 0.03	1.049 ± 0.026	0.915 ± 0.023	0.807 ± 0.021	0.712 ± 0.019
x2 = 0.3523	978.06 ± 0.45	968.78 ± 0.47	959.51 ± 0.5	950.17 ± 0.53	940.78 ± 0.55	1.102 ± 0.027	0.952 ± 0.024	0.834 ± 0.021	0.735 ± 0.019	0.656 ± 0.017
x2 = 0.4584	962.87 ± 0.47	953.43 ± 0.5	943.96 ± 0.53	934.42 ± 0.56	924.85 ± 0.58	0.991 ± 0.025	0.858 ± 0.022	0.753 ± 0.02	0.665 ± 0.018	0.593 ± 0.016
x2 = 0.5594	947.6 ± 0.5	937.99 ± 0.53	928.33 ± 0.56	918.6 ± 0.59	908.82 ± 0.62	0.899 ± 0.023	0.779 ± 0.02	0.684 ± 0.018	0.604 ± 0.016	0.539 ± 0.015
x2 = 0.6557	931.99 ± 0.54	922.17 ± 0.57	912.31 ± 0.6	902.36 ± 0.63	892.35 ± 0.66	0.809 ± 0.021	0.703 ± 0.018	0.62 ± 0.017	0.548 ± 0.015	0.491 ± 0.014
x2 = 0.7476	916.33 ± 0.58	906.29 ± 0.61	896.21 ± 0.64	886.02 ± 0.67	875.8 ± 0.7	0.729 ± 0.019	0.636 ± 0.017	0.56 ± 0.015	0.498 ± 0.014	0.447 ± 0.013
x2 = 0.8354	900.43 ± 0.61	890.16 ± 0.65	879.84 ± 0.68	869.42 ± 0.71	858.93 ± 0.74	0.655 ± 0.017	0.573 ± 0.016	0.505 ± 0.014	0.451 ± 0.013	0.405 ± 0.012
x2 = 0.9195	884.33 ± 0.66	873.83 ± 0.69	863.26 ± 0.72	852.58 ± 0.75	841.81 ± 0.79	0.585 ± 0.016	0.519 ± 0.014	0.458 ± 0.013	0.41 ± 0.013	0.369 ± 0.012

c1ccccc1 [benzene] + CN1CCCC1=O
x1 = 1
Details	mass density [kg/m3]	viscosity [mPa·s]
303.15 K	868.21 ± 0.7	0.561 ± 0.015
313.15 K	857.46 ± 0.73	0.493 ± 0.014
323.15 K	846.65 ± 0.76	0.436 ± 0.013
333.15 K	835.72 ± 0.8	0.388 ± 0.012
343.15 K	824.87 ± 0.83	0.345 ± 0.011

C1CCCCC1 [cyclohexane] + CN1CCCC1=O
x1 = 1
Details	mass density [kg/m3]	viscosity [mPa·s]
303.15 K	769.1 ± 0.97	0.821 ± 0.021
313.15 K	759.6 ± 1	0.696 ± 0.018
323.15 K	749.98 ± 1	0.598 ± 0.016
333.15 K	740.23 ± 1.1	0.52 ± 0.014

Cc1ccccc1 [toluene] + CN1CCCC1=O
x1 = 1
Details	mass density [kg/m3]	viscosity [mPa·s]
303.15 K	858.32 ± 0.76	0.525 ± 0.015
313.15 K	848.92 ± 0.79	0.47 ± 0.014
323.15 K	839.45 ± 0.82	0.423 ± 0.013
333.15 K	829.93 ± 0.85	0.385 ± 0.012
343.15 K	820.3 ± 0.88	0.35 ± 0.012
353.15 K	810.54 ± 0.91	0.323 ± 0.011
